Data taken from the supplement of paper PMC10307832.

What was measured:
Assay in all cases: relative viability (nuclei count vs DMSO), 5 days (fraction); higher = more cells survive
[1] = test system: SW 1573
Procedure, shortened: (§1)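 For relative viability, nuclei counts in treated wells were divided by those in vehicle wells. Lung cancer cell lines had been pin-tool dosed in 1536-well plates the day after seeding and cultured for 5 days, then fixed and stained in one step (final 0.05% Triton X-100, 1% formaldehyde, 1 ug/ml Hoechst) and imaged at 4×. Doses were one drug alone or a fixed anchor-drug dose plus five library-drug doses (not always all listed) in √10 steps, and values are duplicate-plate medians.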

[2] = test system: NCI-H1651
Procedure, shortened: as §1

[3] = test system: LC-2-ad
Procedure, shortened: as §1

[4] = test system: HARA
Procedure, shortened: as §1

[5] = test system: HCC-78
Procedure, shortened: as §1

[6] = test system: NCI-H460
Procedure, shortened: as §1

[7] = test system: NCI-H2009
Procedure, shortened: as §1

[8] = test system: NCI-H650
Procedure, shortened: as §1

[9] = test system: NCI-H2085
Procedure, shortened: as §1

[10] = test system: EPLC-272H
Procedure, shortened: as §1

[11] = test system: HCC-15
Procedure, shortened: as §1

[12] = test system: COR-L23
Procedure, shortened: as §1

[13] = test system: NCI-H838
Procedure, shortened: as §1

[14] = test system: UMC-11
Procedure, shortened: as §1

[15] = test system: LU99A
Procedure, shortened: as §1

[16] = test system: NCI-H1915
Procedure, shortened: as §1

[17] = test system: NCI-H2347
Procedure, shortened: as §1

[18] = test system: NCI-H358
Procedure, shortened: as §1

[19] = test system: NCI-H1993
Procedure, shortened: as §1

[20] = test system: NCI-H2126
Procedure, shortened: as §1

[21] = test system: ABC-1
Procedure, shortened: as §1

[22] = test system: PC-14
Procedure, shortened: as §1

`C[C@@H]1CN(CC(=O)Nc2ccc3c(c2)Cc2cccc(-c4cc(=O)cc(N5CCOCC5)o4)c2S3)C[C@H](C)O1` + C[C@]1(O)C[C@@H](c2nc(-c3ccc4ccc(-c5ccccc5)nc4c3)c3c(N)nccn32)C1 [Linsitinib] (partner 1 µM) showed a relative viability ([1]; first compound 0.04 µM) of 0.814, a relative viability ([1]; first compound 0.1265 µM) of 0.914 and a relative viability ([1]; first compound 0.4 µM) of 0.646. The relative viability ([1]; first compound 4 µM) was 0.771, the relative viability ([2]; first compound 0.04 µM) was 1.01 and the relative viability ([2]; first compound 0.1265 µM) was 0.944. For the same compound, the relative viability ([2]; first compound 0.4 µM) was 0.757, the relative viability ([2]; first compound 4 µM) was 0.96 and the relative viability ([3]; first compound 0.04 µM) was 0.798. The relative viability ([3]; first compound 0.1265 µM) was 0.895, the relative viability ([3]; first compound 0.4 µM) was 0.839 and the relative viability ([3]; first compound 4 µM) was 0.719. For the same compound, the relative viability ([4]; first compound 0.04 µM) was 0.997, the relative viability ([4]; first compound 0.1265 µM) was 0.876 and the relative viability ([4]; first compound 0.4 µM) was 0.893. It also gave a relative viability ([4]; first compound 4 µM) of 0.906, a relative viability ([5]; first compound 0.04 µM) of 0.485 and a relative viability ([5]; first compound 0.1265 µM) of 0.461. The relative viability ([5]; first compound 0.4 µM) was 0.344, the relative viability ([5]; first compound 4 µM) was 0.461 and the relative viability ([6]; first compound 0.04 µM) was 0.858. For the same compound, the relative viability ([6]; first compound 0.1265 µM) was 0.726, the relative viability ([6]; first compound 0.4 µM) was 0.682 and the relative viability ([6]; first compound 4 µM) was 0.371. It also gave a relative viability ([7]; first compound 0.04 µM) of 1.24, a relative viability ([7]; first compound 0.1265 µM) of 1.13 and a relative viability ([7]; first compound 0.4 µM) of 1.1. It also gave a relative viability ([7]; first compound 4 µM) of 0.961, a relative viability ([8]; first compound 0.04 µM) of 0.85 and a relative viability ([8]; first compound 0.1265 µM) of 0.729. The relative viability ([8]; first compound 0.4 µM) was 0.86, the relative viability ([8]; first compound 4 µM) was 0.584 and the relative viability ([9]; first compound 0.04 µM) was 0.992. It also gave a relative viability ([9]; first compound 0.1265 µM) of 0.803, a relative viability ([9]; first compound 0.4 µM) of 0.827 and a relative viability ([9]; first compound 4 µM) of 0.724. The relative viability ([10]; first compound 0.04 µM) was 1.24, the relative viability ([10]; first compound 0.1265 µM) was 1.12 and the relative viability ([10]; first compound 0.4 µM) was 1.17. The relative viability ([10]; first compound 4 µM) was 1.36, the relative viability ([11]; first compound 0.04 µM) was 0.85 and the relative viability ([11]; first compound 0.1265 µM) was 0.809. It also gave a relative viability ([11]; first compound 0.4 µM) of 0.878, a relative viability ([11]; first compound 4 µM) of 0.674 and a relative viability ([12]; first compound 0.04 µM) of 0.97. The relative viability ([12]; first compound 0.1265 µM) was 0.878, the relative viability ([12]; first compound 0.4 µM) was 0.936 and the relative viability ([12]; first compound 4 µM) was 0.796. For the same compound, the relative viability ([13]; first compound 0.04 µM) was 0.931, the relative viability ([13]; first compound 0.1265 µM) was 0.984 and the relative viability ([13]; first compound 0.4 µM) was 0.871. The relative viability ([13]; first compound 4 µM) was 0.688, the relative viability ([14]; first compound 0.04 µM) was 0.997 and the relative viability ([14]; first compound 0.1265 µM) was 0.993. It also gave a relative viability ([14]; first compound 0.4 µM) of 1.05, a relative viability ([14]; first compound 4 µM) of 0.857 and a relative viability ([15]; first compound 0.04 µM) of 0.489. It also gave a relative viability ([15]; first compound 0.1265 µM) of 0.46, a relative viability ([15]; first compound 0.4 µM) of 0.572 and a relative viability ([15]; first compound 4 µM) of 0.596. For the same compound, the relative viability ([16]; first compound 0.04 µM) was 1.05, the relative viability ([16]; first compound 0.1265 µM) was 1.07 and the relative viability ([16]; first compound 0.4 µM) was 1.13. For the same compound, the relative viability ([16]; first compound 4 µM) was 1.12, the relative viability ([17]; first compound 0.04 µM) was 0.883 and the relative viability ([17]; first compound 0.1265 µM) was 1.05. The relative viability ([17]; first compound 0.4 µM) was 1.01, the relative viability ([17]; first compound 4 µM) was 1.02 and the relative viability ([18]; first compound 0.04 µM) was 0.854. It also gave a relative viability ([18]; first compound 0.1265 µM) of 0.733, a relative viability ([18]; first compound 0.4 µM) of 0.703 and a relative viability ([18]; first compound 4 µM) of 0.487. The relative viability ([19]; first compound 0.04 µM) was 0.716, the relative viability ([19]; first compound 0.1265 µM) was 0.733 and the relative viability ([19]; first compound 0.4 µM) was 0.848. For the same compound, the relative viability ([19]; first compound 4 µM) was 0.805, the relative viability ([20]; first compound 0.04 µM) was 0.765 and the relative viability ([20]; first compound 0.1265 µM) was 0.762. For the same compound, the relative viability ([20]; first compound 0.4 µM) was 0.707, the relative viability ([20]; first compound 4 µM) was 0.722 and the relative viability ([21]; first compound 0.1265 µM) was 0.781. The relative viability ([21]; first compound 0.4 µM) was 0.769, the relative viability ([21]; first compound 4 µM) was 0.673 and the relative viability ([22]; first compound 0.04 µM) was 0.963. It also gave a relative viability ([22]; first compound 0.1265 µM) of 0.902, a relative viability ([22]; first compound 0.4 µM) of 0.937 and a relative viability ([22]; first compound 4 µM) of 0.754.

`CC(C)Oc1cc(Nc2nc(N[C@@H](C)c3ccc(F)cn3)ncc2Cl)n[nH]1` [AZ23] + C[C@]1(O)C[C@@H](c2nc(-c3ccc4ccc(-c5ccccc5)nc4c3)c3c(N)nccn32)C1 [Linsitinib] (partner 1 µM) was tested, and the relative viability ([1]; first compound 0.01 µM) was 0.786, the relative viability ([1]; first compound 0.03162 µM) was 0.937 and the relative viability ([1]; first compound 0.3162 µM) was 0.691. The relative viability ([2]; first compound 0.01 µM) was 0.691, the relative viability ([2]; first compound 0.03162 µM) was 1 and the relative viability ([2]; first compound 0.3162 µM) was 1.18. It also gave a relative viability ([3]; first compound 0.01 µM) of 0.941, a relative viability ([3]; first compound 0.03162 µM) of 0.931 and a relative viability ([3]; first compound 0.3162 µM) of 0.851. For the same compound, the relative viability ([4]; first compound 0.01 µM) was 0.977, the relative viability ([4]; first compound 0.03162 µM) was 1.04 and the relative viability ([4]; first compound 0.3162 µM) was 0.854. It also gave a relative viability ([5]; first compound 0.01 µM) of 0.495, a relative viability ([5]; first compound 0.03162 µM) of 0.431 and a relative viability ([5]; first compound 0.3162 µM) of 0.434. For the same compound, the relative viability ([6]; first compound 0.01 µM) was 0.366, the relative viability ([6]; first compound 0.03162 µM) was 0.933 and the relative viability ([6]; first compound 0.3162 µM) was 0.851. For the same compound, the relative viability ([7]; first compound 0.01 µM) was 1.17, the relative viability ([7]; first compound 0.03162 µM) was 1.25 and the relative viability ([7]; first compound 0.3162 µM) was 1.18. For the same compound, the relative viability ([8]; first compound 0.01 µM) was 0.648, the relative viability ([8]; first compound 0.03162 µM) was 0.893 and the relative viability ([8]; first compound 0.3162 µM) was 0.857. For the same compound, the relative viability ([9]; first compound 0.01 µM) was 1.03, the relative viability ([9]; first compound 0.03162 µM) was 1.02 and the relative viability ([9]; first compound 0.3162 µM) was 0.761. It also gave a relative viability ([10]; first compound 0.01 µM) of 1.26, a relative viability ([10]; first compound 0.03162 µM) of 1.22 and a relative viability ([11]; first compound 0.01 µM) of 0.916. It also gave a relative viability ([11]; first compound 0.03162 µM) of 0.906, a relative viability ([11]; first compound 0.3162 µM) of 0.875 and a relative viability ([12]; first compound 0.01 µM) of 0.948. For the same compound, the relative viability ([12]; first compound 0.03162 µM) was 1.11, the relative viability ([12]; first compound 0.3162 µM) was 0.878 and the relative viability ([13]; first compound 0.01 µM) was 1.02. The relative viability ([13]; first compound 0.03162 µM) was 1.23, the relative viability ([13]; first compound 0.3162 µM) was 0.945 and the relative viability ([14]; first compound 0.01 µM) was 1.04. For the same compound, the relative viability ([14]; first compound 0.03162 µM) was 1.04, the relative viability ([14]; first compound 0.3162 µM) was 1.01 and the relative viability ([15]; first compound 0.01 µM) was 0.534. For the same compound, the relative viability ([15]; first compound 0.03162 µM) was 0.579, the relative viability ([15]; first compound 0.3162 µM) was 0.593 and the relative viability ([16]; first compound 0.01 µM) was 1.13. It also gave a relative viability ([16]; first compound 0.03162 µM) of 1.1, a relative viability ([16]; first compound 0.3162 µM) of 1.09 and a relative viability ([17]; first compound 0.01 µM) of 1.03. It also gave a relative viability ([17]; first compound 0.03162 µM) of 0.993, a relative viability ([17]; first compound 0.3162 µM) of 0.926 and a relative viability ([18]; first compound 0.01 µM) of 0.742. For the same compound, the relative viability ([18]; first compound 0.03162 µM) was 0.771, the relative viability ([18]; first compound 0.3162 µM) was 0.793 and the relative viability ([19]; first compound 0.01 µM) was 0.801. For the same compound, the relative viability ([19]; first compound 0.3162 µM) was 0.724, the relative viability ([20]; first compound 0.01 µM) was 0.737 and the relative viability ([20]; first compound 0.03162 µM) was 0.739. It also gave a relative viability ([20]; first compound 0.3162 µM) of 0.684, a relative viability ([21]; first compound 0.01 µM) of 0.573 and a relative viability ([21]; first compound 0.03162 µM) of 0.916. It also gave a relative viability ([21]; first compound 0.3162 µM) of 0.866, a relative viability ([22]; first compound 0.01 µM) of 0.946 and a relative viability ([22]; first compound 0.03162 µM) of 1.16. For the same compound, the relative viability ([22]; first compound 0.3162 µM) was 1.03.
